The text below walks through data of patent publication US4880014A, “Method for determining therapeutic drug dosage using bioelectrical resistance and reactance measurements” (priority 1988, dated 1989).

Series [1] is described as follows: Theophylline Cl, K and V predicted by bioelectrical impedance (multiple regression), and dose calculated from predicted Cl. As to conditions: two-sided t-test. Also noted: species or system human. An excerpt:
An excitation current of 800 microamps and frequency of 50 kHz was then applied and (R) and (Xc) values obtained.
The independent variables set forth in Table VII were used in a stepwise multiple linear regression program to produce the models of best definition for (Cl), (K) and (V) by entering each patients individual variables (Cl), (V) and (K) into the program. It then fits a linear least-squares regression model to the entire set of independent variables to identify the best independent variables and their coefficients for the description of the […] dependent variables (Cl), (K) and (V). Insignificant variables were dropped from the model. The equations generated are those set forth previously as Equation 3, Equation 4 and Equation 5.
Other internationally recognized programs could also be used and may include BMDP (Biomedical Data Processing) and SPSS (Statistical Programming for the Social Sciences).
In Table VIII, clearance (Cl), elimination rate constant (K), and volume of distribution (V), determined for theophylline using a multiple regression analysis produced F variable sequence defined in Tables VII and IX are shown in columns B, D, and F, respectively. Table VII is the model sequence used to solve for (Cl), (K) and (V) as derived by stepwise regression analysis. […]

Series [2] is described as follows: Theophylline pharmacokinetics in fifteen normal adult males from serum concentrations (Lagran), and dose calculated from measured Cl. It is filed as in vivo, human. From the text:
Fifteen normal adult males were used in the following study. Each subject was given a single intravenous dosage of theophylline.
Serial blood samples were obtained, for all fifteen patients, from an intravenous catheter placed in the arm.
F=1.0, assuming 100% oral absorption

The conditions of series [3]: human, in vivo, iv. The procedure:
Twelve human subjects participated in the following study. The resistance (R) and the reactance (Xc) of each patient was measured using a four-terminal impedance plethysmograph. During the measurement, the subjects were placed in the supine position on an insulative surface. The electrodes were attached in the following manner. Those areas of the patient's skin where the electrodes were to be connected were cleaned thoroughly with alcohol. […]
The elimination rate constant was determined by nonlinear regression analysis of the serum concentration data for each patient using Micrononlin (Micrononlin, Elite Software, box 11223. Pittsburgh. PA 15238).
Volume of distribution was calculated by the Sawchuk-Zaske method.
(§1) Calculation of (K) and (V) from the measured serum concentration data was performed as were the dosage regimens using the measured serum concentration data by the equations of Sawchuk and Zaske which will be known to those skilled in the art.

The nature of series [4]: Simulation of gentamicin peak and trough serum concentrations for an average 70 kg patient. Also noted: species or system human. The procedure: Serum concentrations were then simulated for an average 70 kg patient given a one-hour infusion of the dose to achieve a postdose serum concentration of 6.0 mcg/ml and a predose serum concentration of 1.0 mcg/ml. This simulation was performed with the values of (K) and (V) determined by measured serum concentrations and the calculated dosage regimen from these measured (K) and (V) values, is recorded, respectively, in columns A and B of Table VI. A simulation was also performed with the dosage regimen determined by the bioelectrical impedance analysis of the present invention, using the patient's actual measured (K) and (V), to test the prediction error of the method of dosing of the present invention. Equations A and B which were discussed earlier were used for calculating dosing interval and dose. The latter is recorded respectively in columns C and D of Table VI.

The nature of series [5]: Gentamicin K and V predicted by bioelectrical impedance (multiple regression), and dosage regimen calculated from predicted K, V. More on the design: species or system human. As to conditions: two-sided T-test. The procedure:
Twelve human subjects participated in the following study. The resistance (R) and the reactance (Xc) of each patient was measured using a four-terminal impedance plethysmograph. During the measurement, the subjects were placed in the supine position on an insulative surface. The electrodes were attached in the following manner. Those areas of the patient's skin where the electrodes were to be connected were cleaned thoroughly with alcohol. The four pre-gelled electrodes were then attached to the patient such that one current electrode was attached to the dorsal surface of the patient's right hand at the distal metacarpals, one current electrode was attached to the patient's right foot at the location of the distal metatarsals, one detector electrode was connected to the patients right wrist at the right pisiform prominence, and one detector electrode was connected to the patient's right ankle between the medial and lateral malleoli. An excitation current of 800 microamps and frequency of 50 kHz was then applied and R and Xc values obtained. […]
as §1

“And” between values parts separate entries of the source, which are not always exact repeats. Equal values may be shown once.

What is called clearance is a measure of how efficiently the substance is removed, as volume per time. As to `Cn1c(=O)c2[nH]cnc2n(C)c1=O` [theophylline], the “Comparison of K, V, Cl and dosage regimens, bioelectrical impedance vs measured serum concentrations” value in series [1] is on record as “no statistically significant differences”. In series [2] (human, serum, iv, 4 mg/kg, mean of fifteen subjects, column A, read-out: Clearance (Cl), Meas., MEAN (converted)), the clearance was 52.3 mL/min. The k el in series [2] (human, serum, iv, 4 mg/kg, mean of fifteen subjects, column C, read-out: Elimination Rate Constant (K), Meas., MEAN (converted)) was 2.36e-05 s⁻¹. Moreover, the Vd in series [2] (human, serum, iv, 4 mg/kg, mean of fifteen subjects, column E, read-out: Volume of Distribution (V), Meas., MEAN) is 39.4 L. In series [2] (individual patients (Pt. 1-15), single intravenous 4 mg/kg, 30 minute infusion, column C), the “Elimination Rate Constant (K), Meas.” value is “.0885 h and .0631 h and .0591 h and .0521 h and .0813 h and .0895 h and .1241 h and .0305 h and .1895 h and .0815 h and .0938 h and .0921 h and .0713 h and .0774 h”.

With gentamicin, in series [3], the “Elimination Rate Constant (K), Meas., mean” value is listed as “.270 hr -1” and the “Serum concentrations for all twelve patients” value was 2 to 10 µg/mL. The “Comparison of postdose or predose concentrations simulated from measured K, V vs bioelectrical impedance K, V” value in series [4] is given as “no statistically significant differences”. Besides, the “Comparison of K, V and dosage regimens, bioelectrical impedance vs measured serum concentration” value in series [5] is reported as “no statistically significant differences”.
